Test results published in patent US5294724A, “4-hydroxytetrahydropyran-2-ones and the corresponding dihydroxycarboxylic acid derivatives, salts and esters and a process for their preparation” (priority 1989, dated 1994).

Columns and labels:
serum total cholesterol = assay: Hypocholesterolemic activity in rabbits after p.o. administration; type: in vivo, male white New Zealand rabbits; settings: for Serum total cholesterol, % change compared to control group: rabbit p.o., 5 mg/kg per day (constant)
Experimental: 4) Hypocholesterolemic activity in rabbits after p.o. administration
Normolipemic male white New Zealand rabbits, body weight 3-3.5 kg, were divided into groups of 5 animals. The groups in each case received one of the test compounds (sodium salts of the compounds of the formula II), suspended in 1% aqueous methylcellulose (®Tylose MH 300), 5.10 or 20 mg/kg/day daily in the morning by stomach tube. The animals of the control groups received only Tylose MH 300. Every 3-4 days samples of venous blood were taken from all animals 20 hours after the oral administration. The serum total cholesterol was determined enzymatically in these samples using the test combination of Boehringer Mannheim (CHOD-PAP high performance method). The serum cholesterol level of the treated animals was compared with that of the control groups. A "discharge phase" followed the 20-day "treatment phase", in which the change in the serum cholesterol level was further monitored.

[1] = test system: microsomal lipid peroxidation; assay: Inhibition of microsomal lipid peroxidation (in vitro); type: biochemical; settings: 10^-5 mol/l
Experimental: 5) Inhibition of microsomal lipid peroxidation (in vitro)
The inhibition of lipid peroxidation was measured under the experimental conditions described by H. Wafers and H. Sies, Eur. J. Biochem. 174, 353-357 (1988). The microsomes were obtained according to the literature cited therein. IC50 denotes the concentration of the test compound in moles per liter which causes a 50% inhibition of lipid peroxidation.

HMG-CoA reductase = target: T1, HMG-CoA reductase (Rattus norvegicus, UniProt P51639); assay: Inhibition of HMG-CoA reductase activity in solubilized enzyme preparations from rat liver microsomes; type: biochemical; settings: sodium salts of the dihydroxycarboxylic acids; mean of 3 parallel samples; read-out: IC50 (molar concentration necessary for a 50% inhibition)
T1 construct: solubilized enzyme preparations from liver microsomes of rats; from tissue; host or cells: rat liver microsomes (cholestyramine-induced rats), solubilized
T1 sequence (P51639 1-887): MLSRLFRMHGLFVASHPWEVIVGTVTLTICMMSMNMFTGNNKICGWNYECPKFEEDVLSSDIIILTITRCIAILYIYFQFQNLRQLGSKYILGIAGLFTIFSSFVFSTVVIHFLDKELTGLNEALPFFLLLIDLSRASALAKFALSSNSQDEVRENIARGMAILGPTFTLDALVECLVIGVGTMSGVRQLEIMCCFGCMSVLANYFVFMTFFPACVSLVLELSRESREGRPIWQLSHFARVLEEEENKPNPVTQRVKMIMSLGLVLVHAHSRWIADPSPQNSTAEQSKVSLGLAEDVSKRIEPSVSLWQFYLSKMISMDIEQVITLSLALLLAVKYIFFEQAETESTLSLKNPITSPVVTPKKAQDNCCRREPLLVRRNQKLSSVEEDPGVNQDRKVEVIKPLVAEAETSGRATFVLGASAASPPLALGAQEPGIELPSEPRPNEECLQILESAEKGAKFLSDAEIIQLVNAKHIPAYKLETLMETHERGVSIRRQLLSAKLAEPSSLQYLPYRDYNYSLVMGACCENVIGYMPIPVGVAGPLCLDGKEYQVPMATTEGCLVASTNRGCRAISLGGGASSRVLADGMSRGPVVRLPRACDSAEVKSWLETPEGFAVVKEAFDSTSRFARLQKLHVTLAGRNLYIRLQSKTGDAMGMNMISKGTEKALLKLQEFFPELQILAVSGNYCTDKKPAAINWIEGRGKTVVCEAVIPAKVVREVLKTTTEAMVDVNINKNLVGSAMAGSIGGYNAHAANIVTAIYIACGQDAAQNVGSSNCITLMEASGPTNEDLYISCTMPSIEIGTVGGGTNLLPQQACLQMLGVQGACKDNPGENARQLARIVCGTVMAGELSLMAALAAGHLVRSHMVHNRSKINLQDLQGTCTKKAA
Experimental: 1) Inhibition of HKG-CoA reductase activity in solubilized enzyme preparations from rat liver microsomes
HMG-CoA reductase activity was measured on solubilized enzyme preparations from liver microsomes of rats which had been induced by conversion into the day/night rhythm using cholestyramine (®Cuemid). (S,R)^14 C-HMG-CoA was used as a substrate, and the concentration of NADPH was maintained during the incubation by a regenerating system. The separation of ^14 C-mevalonate from substrate and other products (for example ^14 C-HMG) was carried out by column elution, the elution profile of each individual sample being determined. The regular addition of ^3 H-mevalonate was avoided as the determination gives the data relative to the inhibitory action. The enzyme-free control, the enzyme-containing normal mixture (=100%) and those containing preparation additives were in each case treated together in one series of experiments. The sodium salts of the dihydroxycarboxylic acids of the formula II were always employed as the preparation in this test. Each individual value was formed as the mean value of 3 parallel samples. The significance of the mean value differences between preparation-free and preparation-containing samples was evaluated by the t-test.

LDL [2] = assay: Inhibition of Cu2+-catalyzed LDL oxidation in vitro; type: biochemical, porcine; settings: 5 μM Cu2+, 2 hours at 37° C.; for IC50: fluorescence 430 nm, read-out: IC50 (50% inhibition of LDL oxidation)
Experimental: 6) Inhibition of Cu^2+ -catalyzed LDL oxidation in vitro LDL was isolated from porcine plasma which contained EDTA (1 mg/ml) by ultracentrifugation in salt solutions of NaCl/NaBr between the densities 1.019 and 1.063 g/ml (cf. R. J. Havel et al., J. Clin. Invest. 43, 1345 (1955)). LDL was then dialyzed against phosphate-buffered saline (160 mM NaCl, 10 mM NaH2 PO4), pH 7.4 and stored under nitrogen at 4° C. Before the oxidation process, the LDL fractions were diluted to a final protein concentration of 0.1 mg/ml using phosphate-buffered saline and 2.5 ml aliquot parts were pre-incubated under nitrogen with the test compounds (25 μl of ethanolic solution) for 1 hour at 37° C. (cf. McLean et al., Biochemistry 1989, 28, 321). For the Cu^2+ -catalyzed oxidation of LDL, 12.5 μl of a 1 mM CuSO4 solution were added to each sample, a 5 μM Cu^2+ concentration resulting. The incubation was carried out for 2 hours at 37° C. and in an air atmosphere. The fluorescence intensity was measured at 430 nm (excitation wavelength 365 nm) (cf. Steinbrecher, U. P., J. Biol. Chem. 1987, 262, 3603). […] In addition, the inhibition using a 10^-5 N concentration of the test compound is indicated in %.

HEP G2 cells = assay: Inhibition of cholesterol biosynthesis in cell cultures (HEP G2 cells), incorporation of 14C-sodium acetate in cholesterol; type: cell-based; settings: for IC50 / IC70: Homo sapiens, HepG2, sodium salts, test compounds corrected by deviation of mevinolin sodium from its mean value; for IC50: read-out: IC50 (concentration necessary for a 50% inhibition); for IC70: read-out: IC70 (concentration necessary for a 70% inhibition); for Relative potency in % / Relative potency in % (value in parentheses): mevinolin sodium = 100; for Relative potency in %: from IC50; for Relative potency in % (value in parentheses): corresponds to IC70
Experimental: 2) Inhibition of cholesterol biosynthesis in cell cultures (EEP G2 cells)
Determination of the inhibition of the incorporation of ^14 C-sodium acetate in cholesterol
Monolayers of HEP G2 cells in lipoprotein-free medium were preincubated with various concentrations of the sodium salts of the dihydroxycarboxylic acids of the formula II for 1 hour. After adding ^14 C-labeled sodium acetate, the incubation was continued for 3 hours. Tritium-labeled cholesterol was added as an internal standard and an aliquot of the cells was subjected to alkaline hydrolysis. The lipids were extracted using chloroform/methanol 2: 1. After adding carrier cholesterol, the lipid mixture was preparatively separated on TLC plates using chloroform/acetone 9: 1. The cholesterol zone was made visible by staining with iodine vapor, additionally detected using a TLC radio scanner and then scraped off. The amount of ^14 C-cholesterol formed was determined scintigraphically and related to mg of cell protein. The same procedure was carried out with cells from the Bame culture without preincubation with a test compound (so-called "solvent control"). The potency of the test compounds was determined by comparison of the biosynthesized ^14 C-cholesterol in test runs and in "solvent control".

serum lipoproteins = assay: Action on serum lipoproteins and other metabolic parameters of male rats in the subchronic test; type: in vivo; settings: rat
Experimental: 3) Action on serum lipoproteins and other metabolic parameters of male rats in the subchronic test
Groups of male rats of the strain HOE: WISKf (SPF 71) having a starting weight of above 180 g received the test preparations daily in the morning (sodium salts of the dihydroxycarboxylic acids of the formula II) in polyethylene glycol 400 by stomach tube; the respective control group received only the vehicle. The last (7th) administration was carried out 24 hours before taking blood and sacrificing. There was free access to food and water during the experiment. 24 hours before taking blood, which wall carried out retroorbitally under slight ether anesthesia before and after the treatment period (i.e. on the 1st and 8th day), the food was withdrawn. Total cholesterol was determined in the serum of each individual animal [CHODPAP high performance method of Boehringer Mannheim], and, as a measure of the triglycerides, total glycerol was also determined analytically from the serum pool of all the animals of one group [GPO-PAP high performance method, Boehringer Mannheim].
Immediately after taking blood, the animals were sacrificed by dislocation of the spine, and the relative liver weight, the change in body weight and the food consumption were determined.
For the analysis of the serum lipoproteins, the serum of all the rats of one group was pooled. The serum lipoproteins were separated using the preparative ultracentrifuge.
The following conditions were used for the separation of the fractions VLDL, LDL and HDL:
The determination of the protein was carried out by the method of Lowry et al. [LOWRY O. H., ROSEBOROUGH, N.J., PARR, A. L. and RANDELL, R. J.: J. Biol. Chem. 193, 265 (1951)].

LDL [3] = settings: cited from earlier work
[4] = 30 mg/kg daily by stomach tube, 7 administrations

IC50 (HMG-CoA reductase) | IC50 (LDL [2]) | IC50 (HEP G2 cells) | Structure (SMILES) | Serum total cholesterol, % change compared to control group (serum total cholesterol; administration 3) | Serum total cholesterol, % change compared to control group (serum total cholesterol; administration 10) | Serum total cholesterol, % change compared to control group (serum total cholesterol; administration 14) | Serum total cholesterol, % change compared to control group (serum total cholesterol; discharge phase 3) | Serum total cholesterol, % change compared to control group (serum total cholesterol; discharge phase 6) | Serum total cholesterol, % change compared to control group (serum total cholesterol; discharge phase 11) | Inhibition at 10^-5 mol/l [1] | IC70 (HEP G2 cells) | Relative potency in % (HEP G2 cells) | Relative potency in % (value in parentheses) (HEP G2 cells) | further results
4 nM | 6000 nM | 7.5 nM | CC(C)c1c(OC[C@@H](O)C[C@@H](O)CC(=O)O)c(C(C)C)c(C(C)C)c(O)c1-c1ccc(F)cc1 [Example 9] | -8% | -12% | -15% | -4% | -4% | +6% | < 10% | 12 nM | 667% | 1250% | 
6 nM | > 10000 nM | 4.3 nM | CC(C)c1cc(Sc2ccc(F)cc2)cc(-c2ccc(F)cc2)c1OC[C@@H](O)C[C@@H](O)CC(=O)O [Example 1] | -44% | -46% | -43% | -22% | -17% | -6% | < 10% | ~0.8 nM | 1163% | 18750% | onset of action / maximum action (serum total cholesterol; Table 4): commences very early on. The maximum action was virtually achieved even in the first measurement after 3 days of treatment; plasma cholesterol decrease compared with mevinolin and compound C (serum total cholesterol; Table 4, lower dosage): substantially greater plasma cholesterol decrease than mevinolin or the compound C in spite of lower dosage; Serum total cholesterol, % change compared to control group (serum total cholesterol; administration 17): -42%; Serum total cholesterol, % change compared to control group (serum total cholesterol; administration 20): -48%; Inhibition at 10^-5 M (LDL [2]; 10^-5 M): 41%
 | 500 nM |  | CC(C)(Sc1cc(C(C)(C)C)c(O)c(C(C)(C)C)c1)Sc1cc(C(C)(C)C)c(O)c(C(C)(C)C)c1 [probucol, reference compound] |  |  |  |  |  |  |  |  |  |  | Body weight, % changes in the mean value relative to starting (serum lipoproteins; [4]): +5%; Glycerol VLDL, % change compared to control (serum lipoproteins; [4]): +24%; Liver weight, % changes in the mean value relative to control (serum lipoproteins; [4]): +5%; Protein LDL, % change compared to control (serum lipoproteins; [4]): -23%; Protein VLDL, % change compared to control (serum lipoproteins; [4]): -6%; Total cholesterol HDL, % change compared to control (serum lipoproteins; [4]): -11%; Total cholesterol LDL, % change compared to control (serum lipoproteins; [4]): -24%; Total cholesterol VLDL, % change compared to control (serum lipoproteins; [4]): +4%; Cholesterol HDL/LDL (serum lipoproteins; 30 mg/kg daily, control standardization to 1.00): 0.97; oxidative modification of LDL in vivo (LDL [3]): prevents oxidative modification of LDL; biliary cholesterol excretion (LDL [3]; in vivo): increases biliary cholesterol excretion; lowering of LDL and HDL (LDL [3]; in vivo): lowers both LDL and HDL; plasma cholesterol-lowering action compared with a potent cholesterol biosynthesis inhibitor (such as mevinolin) (LDL [3]; in vivo): only poorly pronounced; rate of catabolism of LDL (LDL [3]; in vivo): increases the rate of catabolism of LDL
